Tested on: 188146-221-R-J1-PDC complex spheroid viability
Experiment: Anticancer human tumor 188146-221-R-J1-PDC patient-derived colon adenocarcinoma cell line growth inhibition [POLQ]
Conditions: for IC50: curve of first compound; for viability, T/C: stronger effect = lower value
Experimental: Multicellular complex tumor spheroid response to Polymerase (POL) inhibitors (novobiocin, ART-558, RP6685) in combination with a variety of drugs and investigational agents in selected tumor cell lines
The POL inhibitors (novobiocin, ART-558, and RP6685) were evaluated both individually and in combination with standard of care and investigational anticancer small molecules within a complex spheroid model of solid tumors. . Complex spheroids include a stromal component modeled by human endothelial cells (HUVEC) and fibroblasts modeled by human mesenchymal stem cells (MSCs). The concentration ranges selected for each drug and investigational agent were based upon clinically achievable concentrations if the clinical Cmax of the agent was known.
Compounds. The drugs and investigational agents: novobiocin (NSC847541), ART-558 (NSC835418), RP-6685 (NSC848927), peposertib (NSC802822), ceralasertib (NSC780249), elimusertib (NSC800525), camonsertib (NSC841442), AZD-1390 (NSC803789), olaparib (NSC753686), talazoparib (NSC767125), rucaparib (NSC756644), sotorasib (NSC818433), MRTX-1133 (NSC836407), SN-38 (NSC673596), topotecan (NSC609699), epotoside (NSC141540), doxorubicin (NSC123127), gemcitabine (NSC613327), 5-fluorouracil (NSC19893), paclitaxel (NSC125973), vemurafenib (NSC761431), MSA-2 (NSC828583), SN-011 (NSC837082), adavosertib (NSC754352), prexasertib (NSC758257), carboplatin (NSC241240) and oxaliplatin (NSC266046), were obtained from the National Cancer Institute (NCI) Developmental Therapeutics Program Chemical Repository (21). The FDA-approved anticancer drug set is available from the Developmental Therapeutics Program at https://dtp.cancer.gov/organization/dscb/obtaining/. […] The stock solutions were prepared in dimethyl sulfoxide (DMSO, Sigma-Aldrich, St. Louis, MO, cat. D2650), except for the platinum compounds which were prepared in saline (Quality Biological, Gaithersburg, MD, cat. 114-055-101), at 800-fold the tested concentration and stored at -70 degrees C prior to their use. All drugs and investigational agents were tested over a range starting from a high concentration at or near the clinical Cmax and decreasing in half-log increments. If the clinical Cmax for an agent had not been determined, the highest concentration tested was 10 microM, except for SN-38, which was tested at a high concentration of 1 microM.
Cell Culture. All cells were maintained in an incubator at 37 degrees C and 5% CO2 with 95% humidity. The PDC lines were cultured according to standard operating procedures established by the NCI PDMR (https://pdmr.cancer.gov). Table 3 of the manuscript, lists the cell lines along with the number of the three cell types plated to form the mct-spheroids and media for tumor cell growth. After thawing, all PDC lines, except 997537-175-T-J1-PDC and 415267-285-R-J2-PDC, were cultured in Matrigel-coated flasks prepared with a working solution of 1X Ham's F-12 nutrient mix, without supplementation (Thermo Fisher Scientific, cat. 11765054), 100 U/mL penicillin-streptomycin (Thermo Fisher Scientific, cat. 15140122), and 2.5% Matrigel (Corning Inc., Corning, NY, cat. 354248) for the first three passages. The two PDC lines 997537-175-T-J1-PDC and 415267-285-R-J2-PDC were cultured on uncoated flasks. The 857933-349-R-J2-PDC line was cultured in 6C/Colon 1B media containing advanced DMEM/F-12 (Thermo Fisher Scientific, cat. 12634028), 10 mM HEPES (Thermo Fisher Scientific, cat. 15630080), 1X GlutaMAX supplement (Thermo Fisher Scientific, cat. 35050061), 0.1 mg/mL primocin (InvivoGen, San Diego, CA, cat. ant-pm-2), 10% defined fetal bovine serum, heat inactivated (HyClone Laboratories Inc., Logan, UT, cat. SH30070.03HI), 50% L-WRN conditioned media (ATCC, cat. CRL-3276), 1.25 mM N-Acetyl-L-cysteine (Sigma-Aldrich, cat. A9165), 10 mM nicotinamide (Sigma-Aldrich, cat. N0636), 1X B-27 supplement (Thermo Fisher Scientific, cat. 17504044), 1X N-2 supplement (Thermo Fisher Scientific, cat. […]

[1] = second compound 0.0316 µM, first compound 0.0316 µM
[2] = second compound 0.0316 µM, first compound 0.1 µM
[3] = second compound 0.0316 µM, first compound 0.316 µM
[4] = second compound 0.0316 µM, first compound 1 µM
[5] = second compound 0.0316 µM, first compound 3.16 µM
[6] = second compound 0.0316 µM, first compound 10 µM
[7] = second compound 0.1 µM, first compound 0.0316 µM
[8] = second compound 0.1 µM, first compound 0.1 µM
[9] = second compound 0.1 µM, first compound 0.316 µM
[10] = second compound 0.1 µM, first compound 1 µM
[11] = second compound 0.1 µM, first compound 3.16 µM
[12] = second compound 0.1 µM, first compound 10 µM
[13] = second compound 0.316 µM, first compound 0.0316 µM
[14] = second compound 0.316 µM, first compound 0.1 µM
[15] = second compound 0.316 µM, first compound 0.316 µM
[16] = second compound 0.316 µM, first compound 1 µM
[17] = second compound 0.316 µM, first compound 3.16 µM
[18] = second compound 0.316 µM, first compound 10 µM
[19] = second compound 1 µM, first compound 0.0316 µM
[20] = second compound 1 µM, first compound 0.1 µM
[21] = second compound 1 µM, first compound 0.316 µM
[22] = second compound 1 µM, first compound 1 µM
[23] = second compound 1 µM, first compound 3.16 µM
[24] = second compound 1 µM, first compound 10 µM
[25] = second compound 3.16 µM, first compound 0.0316 µM
[26] = second compound 3.16 µM, first compound 0.1 µM
[27] = second compound 3.16 µM, first compound 0.316 µM
[28] = second compound 3.16 µM, first compound 1 µM
[29] = second compound 3.16 µM, first compound 3.16 µM
[30] = second compound 3.16 µM, first compound 10 µM
[31] = second compound 10 µM, first compound 0.0316 µM
[32] = second compound 10 µM, first compound 0.1 µM
[33] = second compound 10 µM, first compound 0.316 µM
[34] = second compound 10 µM, first compound 1 µM
[35] = second compound 10 µM, first compound 3.16 µM
[36] = second compound 10 µM, first compound 10 µM
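Note: spheroids exposed to compounds for seven days.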
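Throughout, for viability, T/C: 100% = DMSO vehicle control viability.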

`CC1COCCN1c1cc(-c2ccnn2C)c2ccnc(-c3ccn[nH]3)c2n1` (centres undefined) + Nc1ccc(C#CCN(C(=O)Cc2ncc(C(F)(F)F)cc2C(F)(F)F)c2ccc(F)cc2)nn1 was tested, and the IC50 (second compound 0.0316 µM) was 177 nM, the IC50 (second compound 0.1 µM) was 228 nM and the IC50 (second compound 0.316 µM) was 173 nM. For the same compound, the IC50 (second compound 1 µM) was 142 nM, the IC50 (second compound 3.16 µM) was 162 nM and the IC50 (second compound 10 µM) was 176 nM. The viability, T/C [1] was 84.9%, the viability, T/C [2] was 63.2% and the viability, T/C [3] was 36.3%. The viability, T/C [4] was 22.6%, the viability, T/C [5] was 16.3% and the viability, T/C [6] was 14.5%. For the same compound, the viability, T/C [7] was 86.4%, the viability, T/C [8] was 72.8% and the viability, T/C [9] was 40.3%. It also gave a viability, T/C [10] of 22.3%, a viability, T/C [11] of 17.2% and a viability, T/C [12] of 12.9%. For the same compound, the viability, T/C [13] was 80%, the viability, T/C [14] was 61.1% and the viability, T/C [15] was 38.3%. For the same compound, the viability, T/C [16] was 20%, the viability, T/C [17] was 14.1% and the viability, T/C [18] was 15.8%. It also gave a viability, T/C [19] of 96.3%, a viability, T/C [20] of 54% and a viability, T/C [21] of 40.2%. The viability, T/C [22] was 19.2%, the viability, T/C [23] was 16.2% and the viability, T/C [24] was 15%. It also gave a viability, T/C [25] of 89.7%, a viability, T/C [26] of 56.7% and a viability, T/C [27] of 42.6%. For the same compound, the viability, T/C [28] was 19.6%, the viability, T/C [29] was 17.4% and the viability, T/C [30] was 14.2%. For the same compound, the viability, T/C [31] was 77.3%, the viability, T/C [32] was 66.1% and the viability, T/C [33] was 33.2%. The viability, T/C [34] was 19.8%, the viability, T/C [35] was 18.6% and the viability, T/C [36] was 14.7%.
In the case of `CC1COCCN1c1cc(C2(O)CC3CCC(C2)O3)c2cnn(-c3ccn[nH]3)c2n1` (centres undefined) + Cc1cccc(N(C)C(=O)C2C(O)CCN2c2nc(C)cc(C(F)(F)F)c2C#N)c1, the IC50 (second compound 0.0316 µM) is reported as 422 nM, the IC50 (second compound 0.1 µM) is reported as 322 nM and the IC50 (second compound 0.316 µM) is reported as 365 nM. The IC50 (second compound 1 µM) was 426 nM, the IC50 (second compound 3.16 µM) was 259 nM and the IC50 (second compound 10 µM) was 190 nM. For the same compound, the viability, T/C [1] was 83.2%, the viability, T/C [2] was 67.8% and the viability, T/C [3] was 61.5%. The viability, T/C [4] was 27.6%, the viability, T/C [5] was 19.2% and the viability, T/C [6] was 7.58%. It also gave a viability, T/C [7] of 95.3%, a viability, T/C [8] of 75.7% and a viability, T/C [9] of 51.1%. It also gave a viability, T/C [10] of 26.6%, a viability, T/C [11] of 16.8% and a viability, T/C [12] of 7.79%. For the same compound, the viability, T/C [13] was 91.9%, the viability, T/C [14] was 80.2% and the viability, T/C [15] was 52.4%. The viability, T/C [16] was 27.4%, the viability, T/C [17] was 17.4% and the viability, T/C [18] was 9.2%. For the same compound, the viability, T/C [19] was 89.2%, the viability, T/C [20] was 71.9% and the viability, T/C [21] was 56.1%. For the same compound, the viability, T/C [22] was 36%, the viability, T/C [23] was 19.2% and the viability, T/C [24] was 7.67%. It also gave a viability, T/C [25] of 94.8%, a viability, T/C [26] of 68.4% and a viability, T/C [27] of 46.4%. It also gave a viability, T/C [28] of 27.3%, a viability, T/C [29] of 22.8% and a viability, T/C [30] of 8.6%. For the same compound, the viability, T/C [31] was 80.7%, the viability, T/C [32] was 60.3% and the viability, T/C [33] was 43.4%. The viability, T/C [34] was 24%, the viability, T/C [35] was 23.9% and the viability, T/C [36] was 9.35%.

Source: PubChem BioAssay AID1963851 (Molecular Pharmacology Branch, DTP, NCI, 2024)
